Literature values, collected in US5223503A, “6-substituted pyrido[2,3-d]pyrimidines as antineoplastic agents” (Eli Lilly and Company, priority 1992, dated 1993).

Tested on: solid tumors
Conditions: Proc. Amer. Assoc. Cancer Res., 31, 1053 (1990)

**Q.** For Nc1nc2c(c(=O)[nH]1)CC(CCc1ccc(C(=O)N[C@@H](CCC(=O)O)C(=O)O)cc1)CN2 (stereo partly shown) [lometrexol, 5,10-dideazatetrahydrofolic acid], which “clinical efficacy against solid tumors” value is on record?
**A.** The value was “clinical efficacy against solid tumors”.
